Laboratory results as given in patent US12612410B2 (CHILDREN'S HOSPITAL MEDICAL CENTER, priority 2020, dated 2026).

Legend:
IRAK4 [1] = target: T1, IRAK4 (Homo sapiens, UniProt Q9NWZ3); assay: RBC HotSpot Kinase Assay, IRAK4; type: biochemical; set-up: purchased Reaction Biology (RBC), HotSpot kinase assay; details: isolated kinase, 33P-ATP
T1 sequence (Q9NWZ3 1-460): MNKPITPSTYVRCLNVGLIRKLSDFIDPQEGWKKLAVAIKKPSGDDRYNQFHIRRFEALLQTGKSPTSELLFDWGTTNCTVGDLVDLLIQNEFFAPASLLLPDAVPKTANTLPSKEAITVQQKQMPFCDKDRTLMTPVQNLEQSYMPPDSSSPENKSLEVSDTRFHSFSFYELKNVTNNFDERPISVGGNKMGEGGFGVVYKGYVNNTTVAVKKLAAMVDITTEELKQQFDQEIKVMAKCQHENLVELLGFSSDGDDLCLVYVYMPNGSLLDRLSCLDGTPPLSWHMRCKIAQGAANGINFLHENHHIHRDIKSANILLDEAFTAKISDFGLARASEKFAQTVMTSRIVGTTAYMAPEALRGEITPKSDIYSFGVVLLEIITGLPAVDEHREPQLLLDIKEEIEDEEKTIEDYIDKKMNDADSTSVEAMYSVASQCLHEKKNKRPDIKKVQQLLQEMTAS
Method in brief: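 Radiometric filter-binding activity assay with isolated, possibly truncated kinases in 20 mM Hepes pH 7.5, 10 mM MgCl2, 1 mM EGTA, 2 mM DTT, 1% DMSO plus cofactors. Compound preincubated with kinase and substrate 20 min, then 33P-ATP added for 2 h at room temperature.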

IRAK4 [2] = target: T1, IRAK4; assay: Reaction Biology NanoBRET target engagement assay, IRAK4; type: cell-based; details: transfected HEK-293 cells
Description: The NanoBRET assay measures kinase engagement in real time in the context of the intact cell. Unlike the previously described biochemical kinase assay methodologies in Examples 26-27, the NanoBRET assay measures the binding and activity characteristics under equilibrium conditions using full-length kinases in the presence of cellular concentrations of ATP in live, uncompromised cells. As such, the assay provides a more relevant assessment of kinase potency and selectivity that would be expected to be observed in the native cellular environment, where potency is often considerably lower than that observed in the isolated biochemical assays (Vasta, J. D. et al., (2018) Cell Chem. Biol. 25, 206-214). The assay uses a Kinase-NanoLuc® fusion vector expressing a kinase protein to which a luciferase tag has been added, a cell-permeant fluorescent NanoBRET™ tracer, a NanoLuc® substrate, and an extracellular NanoLuc® inhibitor. Upon expression of the luciferase-tagged kinase, cells will produce a strong BRET signal only in the presence of the NanoBRET™ tracer. The extracellular NanoLuc® inhibitor ensures that the BRET signal observed emanates only from live cells. Because the BRET signal has tight distance constraints, addition of the test compound will decrease the BRET signal if the compound competes with the NanoBRET™ tracer for binding to the kinase domain. Under the appropriate tracer conditions established by the manufacturer, quantitative intracellular affinity and relative potency can then be determined using Mass Action model equations.
HEK-293 cells were purchased from ATCC. FuGENEHD Transfection Reagent, Kinase-NanoLucfusion plasmids, Transfection Carrier DNA, NanoBRETTracers and dilution buffer, NanoBRETNano-Glo Substrate, Extracellular NanoLucInhibitor were obtained from Promega.
Assays were conducted following Promega assay protocol with some modifications. HEK-293 Cells were transiently transfected with Kinase-NanoLucFusion Vector DNA by FuGENEHD Transfection Reagent. Testing compounds were delivered into 384 well assay plate by Echo 550 (Labcytelnc, Sunnyvale, CA). Transfected cells were harvested and mixed with NanoBRETTracer Reagent and dispensed into 384 well plates and incubated at 37° C. in 5% CO2 cell culture incubator for 1 hour. The NanoBRETNano-Glo Substrate plus Extracellular NanoLucInhibitor Solution were added into the wells of the assay plate and incubated for 2-3 minutes at room temperature. The donor emission wavelength (460 nm) and acceptor emission wavelength (600 nm) were measured in the EnVisionplate reader. The BRET Ratios were calculated. BRET Ratio=[(Acceptor sample÷Donor sample)−(Acceptor no-tracer control÷Donor no-tracer control)]. The IC50 values of compounds were calculated with Prism GraphPad program.
NanoBRET™ Target Engagement Assay Protocol
1. Transient Transfection of HEK-293 Cells NanoLuc® Fusion Vector DNA
• 1). Cultivate HEK-293 cells (70-80% confluence) appropriately prior to assay. Trypsinize and collect HEK-293 cells. • 2). Prepare lipid: DNA complexes as follows: • a. Prepare a […] solution of DNA in Opti-MEM without serum that consists of the following ratios of carrier DNA and DNA encoding NanoLuc® fusion. 9.0 µg/mL of Transfection Carrier DNA, […] of NanoLuc fusion vector DNA and 1 mL of Opti-MEM without phenol red. Mix thoroughly. • b. Add 30 l of FuGENE HD Transfection Reagent into each milliliter of DNA mixture to form lipid: DNA complex. • c. Mix by inversion 10 times. • d. Incubate at ambient temperature for 20 minutes to allow complexes to form. • 3). In a sterile, conical tube, mix 1 part of lipid: DNA complex with 20 parts of HEK-293 cells in suspension. Mix gently by inversion 5 times. • 4). Dispense cells+lipid: DNA complex into a sterile tissue culture dish and incubate for 22-24 hours. 2. Addition of Test Compounds (dry plate shooting)
Each test compound is delivered from the compound source plate to the wells of 384-well white NBS plate by Echo 550.
3. […]

Row | Structure (SMILES) | IC50 (IRAK4 [1]) [nM] | IC50 (IRAK4 [2]) [nM]
1 | CC(O)(c1cn2c(-c3cccc(N[C@H]4CNCC[C@@H]4F)n3)cnc2cn1)C(F)(F)F (single isomer, unassigned) [Compound 80] | 3 | < 0.5
2 | CC(O)(c1cn2c(-c3cccc(N[C@@H]4CCCNC4)n3)cnc2cn1)C(F)(F)F (single isomer, unassigned) [Compound 81] | < 0.5 | < 0.5
3 | CC(O)(c1cn2c(-c3cccc(N[C@H]4CNCC[C@@H]4F)n3)cnc2cn1)C(F)(F)F (single isomer, unassigned) [Compound 82] | < 0.5 | < 0.5
4 | CC1(c2cn3c(-c4cccc(N[C@H]5CNC[C@@H]5F)n4)cnc3cn2)CC1 [Compound 1, N-((3S,4S)-4-fluoropyrrolidin-3-yl)-6-(6-(1-methylcyclopropyl)imidazo[1,2-a]pyrazin-3-yl)pyridin-2-amine] | 0.5 | < 0.5
5 | CC1(c2cn3c(-c4cccc(N[C@@H]5CCNC5)n4)cnc3cn2)CC1 [Compound 3, (R)-6-(6-(1-methylcyclopropyl)imidazo[1,2-a]pyrazin-3-yl)-N-(pyrrolidin-3-yl)pyridin-2-amine] | 0.9 | < 0.5
6 | CC1(c2cn3c(-c4cccc(N[C@H]5CNCC56CC6)n4)cnc3cn2)CC1 [Compound 5, (R)-N-(6-(6-(1-methylcyclopropyl)imidazo[1,2-a]pyrazin-3-yl)pyridin-2-yl)-5-azaspiro[2.4]heptan-7-amine] | < 0.5 | < 0.5
7 | FC(F)(F)C1(c2cn3c(-c4cccc(N[C@@H]5CCNC5)n4)cnc3cn2)CC1 [Compound 10, (R)-N-(pyrrolidin-3-yl)-6-(6-(1-(trifluoromethyl)cyclopropyl)imidazo[1,2-a]pyrazin-3-yl)pyridin-2-amine] | 2 | 
8 | FC(F)c1cn2c(-c3cccc(N[C@H]4CNCC[C@@H]4F)n3)cnc2cn1 [Compound 25, 6-(6-(difluoromethyl)imidazo[1,2-a]pyrazin-3-yl)-N-((3S,4S)-4-fluoropiperidin-3-yl)pyridin-2-amine] | 1 | < 0.5
9 | CC(C)(O)c1cn2c(-c3cccc(N[C@@H]4CCCNC4)n3)cnc2cn1 [Compound 30, (R)-2-(3-(6-(piperidin-3-ylamino)pyridin-2-yl)imidazo[1,2-a]pyrazin-6-yl)propan-2-ol] | < 0.5 | 
10 | FC(F)(F)COc1cn2c(-c3cccc(N[C@@H]4CCNC4)n3)cnc2cn1 [Compound 38, (R)-N-(pyrrolidin-3-yl)-6-(6-(2,2,2-trifluoroethoxy)imidazo[1,2-a]pyrazin-3-yl)pyridin-2-amine] | 0.8 | < 0.5
11 | Cn1cc(-c2cn3c(-c4cccc(N[C@@H]5CCCNC5)n4)cnc3cn2)cn1 [Compound 43, (R)-6-(6-(1-methyl-1H-pyrazol-4-yl)imidazo[1,2-a]pyrazin-3-yl)-N-(piperidin-3-yl)pyridin-2-amine] | 12 | 84
12 | F[C@H]1CNC[C@@H]1Nc1cccc(-c2cnc3cnc(C4CC4)cn23)n1 [Compound 50, 6-(6-cyclopropylimidazo[1,2-a]pyrazin-3-yl)-N-((3S,4S)-4-fluoropyrrolidin-3-yl)pyridin-2-amine] | 0.6 | 1
13 | F[C@H]1CCNC[C@@H]1Nc1cccc(-c2cnc3cnc(C4CC4)cn23)n1 [Compound 51, 6-(6-cyclopropylimidazo[1,2-a]pyrazin-3-yl)-N-((3S,4S)-4-fluoropiperidin-3-yl)pyridin-2-amine] | 1 | 0.6
14 | Cn1cc(-c2cn3c(-c4cccc(N[C@H]5CNC[C@@H]5F)n4)cnc3cn2)cn1 [Compound 52, N-((3S,4S)-4-fluoropyrrolidin-3-yl)-6-(6-(1-methyl-1H-pyrazol-4-yl)imidazo[1,2-a]pyrazin-3-yl)pyridin-2-amine] | 1 | 
15 | FC(F)COc1cn2c(-c3cccc(N[C@H]4CNC[C@@H]4F)n3)cnc2cn1 [Compound 58, 6-(6-(2,2-difluoroethoxy)imidazo[1,2-a]pyrazin-3-yl)-N-((3S,4S)-4-fluoropyrrolidin-3-yl)pyridin-2-amine] | 1 | < 0.5
16 | O=S1(=O)CCCN1c1cn2c(-c3cccc(N[C@H]4CNCC[C@@H]4F)n3)cnc2cn1 [Compound 97, 2-(3-(6-(((3S,4S)-4-fluoropiperidin-3-yl)amino)pyridin-2-yl)imidazo[1,2-a]pyrazin-6-yl)isothiazolidine 1,1-dioxide] | 6 | 0.9
17 | O=C1NCCN1c1cn2c(-c3cccc(N[C@H]4CNCC[C@@H]4F)n3)cnc2cn1 [Compound 118, 1-(3-(6-(((3S,4S)-4-fluoropiperidin-3-yl)amino)pyridin-2-yl)imidazo[1,2-a]pyrazin-6-yl)imidazolidin-2-one] | 4 | 

Second part, the molecule after the results:

Row | IC50 (IRAK4 [1]) [nM] | IC50 (IRAK4 [2]) [nM] | Structure (SMILES)
18 | 3 | < 0.5 | CC(O)(c1cn2c(-c3cccc(N[C@H]4CNC[C@@H]4F)n3)cnc2cn1)C(F)(F)F (single isomer, unassigned) [Compound 77]
19 | < 0.5 |  | CC(O)(c1cn2c(-c3cccc(N[C@H]4CNC[C@@H]4F)n3)cnc2cn1)C(F)(F)F (single isomer, unassigned) [Compound 78]
20 | 1 | < 0.5 | FC(F)c1cn2c(-c3cccc(N[C@H]4CNC[C@@H]4F)n3)cnc2cn1 [Compound 16, 6-(6-(difluoromethyl)imidazo[1,2-a]pyrazin-3-yl)-N-((3S,4S)-4-fluoropyrrolidin-3-yl)pyridin-2-amine]
21 | < 0.5 | < 0.5 | CC(C)(O)c1cn2c(-c3cccc(N[C@H]4CNCC[C@@H]4F)n3)cnc2cn1 [Compound 31, 2-(3-(6-(((3S,4S)-4-fluoropiperidin-3-yl)amino)pyridin-2-yl)imidazo[1,2-a]pyrazin-6-yl)propan-2-ol]
22 | < 0.5 | < 0.5 | CC(C)(O)c1cn2c(-c3nc(N[C@H]4CNC[C@@H]4F)c(F)cc3F)cnc2cn1 [Compound 33, 2-(3-(3,5-difluoro-6-(((3S,4S)-4-fluoropyrrolidin-3-yl)amino)pyridin-2-yl)imidazo[1,2-a]pyrazin-6-yl)propan-2-ol]
23 | 2 | < 0.5 | CC(C)(O)c1cn2c(-c3nc(N[C@@H]4CCCNC4)c(F)cc3F)cnc2cn1 [Compound 34, (R)-2-(3-(3,5-difluoro-6-(piperidin-3-ylamino)pyridin-2-yl)imidazo[1,2-a]pyrazin-6-yl)propan-2-ol]
24 | 0.8 | < 0.5 | CC(C)(O)c1cn2c(-c3nc(N[C@H]4CNCC[C@@H]4F)c(F)cc3F)cnc2cn1 [Compound 35, 2-(3-(3,5-difluoro-6-(((3S,4S)-4-fluoropiperidin-3-yl)amino)pyridin-2-yl)imidazo[1,2-a]pyrazin-6-yl)propan-2-ol]
